Assay results as given in US20060123501A1, “Method for treating inflammatory disorders” (priority 2004, published 2006).

Tested on: peritoneal-derived macrophages
Test: Fas-induced death of peritoneal macrophages with or without LPS pre-treatment (TUNEL)
Assay type: cell-based, mouse
Settings: LPS 10 μg/ml, 4 h, α-Fas antibody 20 μg/ml
Description: Peritoneal-derived macrophages from cIAP2^−/− (lower panels) and cIAP2^+/+ mice (upper panels) were either pre-treated with LPS for 4 h or not pre-treated prior to exposure to α-Fas antibody and then TUNEL stained to assess cell viability (A). Percentages of viable cells (n=5, average of triplicate wells per mouse, P values were <0.01) are shown within each TUNEL stained panel along with the standard deviation. cIAP2^−/−-derived (open shapes) and cIAP2^+/+-derived (solid shapes) T cells were pre-incubated with a range of IL-7 concentrations and then exposed to dexamethasone and T cell survival was monitored over a 12 h period (B) (n=3, average of triplicate wells per mouse, results are mean±s.d., P values at the 12 h point were <0.05). Peritoneal-derived cell numbers are shown for macrophages of cIAP2^−/− mice and littermate control cIAP2^+/+ mice injected i.p. with LPS(C). […]
Confluent primary cultures of peritoneal-derived macrophages were either pre-treated with LPS (10 μg/ml, 4 h) or not pre-treated prior to exposure to α-Fas antibody (20 μg/ml, clone Jo2) and then TUNEL stained (Roche) to assess cell viability. Primary cultures of spleen derived T cells were pre-incubated with a range of IL-7 concentrations (0, 5, and 10 ng/ml) and then exposed to dexamethasone (100 nM) and T cell survival was monitored over a 12 h period.

lipopolysaccharide [LPS]
Resistance to Fas-mediated killing with or without pre-exposure to LPS (cIAP2−/− macrophages): displayed no difference
Resistance to Fas-induced death after LPS pre-treatment (wild-type macrophages): showed the expected resistance to Fas-induced death
